Patent publication US11813306B2, “Cyclic tetramer compounds as proprotein convertase subtilisin/kexin type 9 (PCSK9) inhibitors for the treatment of metabolic disorders” (NOVARTIS AG, priority 2018, dated 2023)

Biological target: human PCSK9 (Homo sapiens, UniProt Q8NBP7)
Assay: PCSK9 ligand binding assay (TR-FRET): interference with binding of human PCSK9 to human LDLR
Conditions: for IC50: Human PCSK9 Alexa Fluor 647 / Human LDLR extracellular domain-Europium Kryptate; for Max % inhibition: efficacy (Amax), 100% = 1 uM unlabeled human PCSK9, 0% = DMSO
Summary of the method: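 Read-out was TR-FRET ratio (665 nm over 615 nm, 330 nm excitation) between Alexa Fluor 647-human PCSK9 (16 nM added) and Europium Kryptate-human LDLR ectodomain (4 nM added). Compound and PCSK9 were mixed 30 min before LDLR, then incubated 2 h. Inhibition was normalised to DMSO and unlabelled-PCSK9 controls, giving IC50 and Amax.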

Sequence of human PCSK9 (Q8NBP7 153-692): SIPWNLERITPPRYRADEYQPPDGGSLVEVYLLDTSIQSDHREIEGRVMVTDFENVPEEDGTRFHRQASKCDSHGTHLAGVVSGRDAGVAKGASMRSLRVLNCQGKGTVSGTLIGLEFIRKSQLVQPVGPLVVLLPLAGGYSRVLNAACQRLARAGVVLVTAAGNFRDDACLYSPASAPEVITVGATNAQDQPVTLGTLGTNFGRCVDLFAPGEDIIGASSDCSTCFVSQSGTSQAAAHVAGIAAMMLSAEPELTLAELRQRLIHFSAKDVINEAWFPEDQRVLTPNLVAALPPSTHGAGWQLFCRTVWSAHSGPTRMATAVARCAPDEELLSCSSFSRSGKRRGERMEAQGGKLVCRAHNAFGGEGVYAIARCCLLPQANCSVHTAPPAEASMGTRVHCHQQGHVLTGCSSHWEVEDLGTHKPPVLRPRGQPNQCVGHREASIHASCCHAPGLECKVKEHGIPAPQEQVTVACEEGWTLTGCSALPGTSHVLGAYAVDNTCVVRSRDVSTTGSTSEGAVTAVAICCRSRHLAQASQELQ
Sequence of human PCSK9 (Q8NBP7 31-152 partner limits assumed): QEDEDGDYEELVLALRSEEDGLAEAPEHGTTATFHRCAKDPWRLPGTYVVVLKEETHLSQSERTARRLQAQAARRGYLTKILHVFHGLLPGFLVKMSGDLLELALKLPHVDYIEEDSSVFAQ

Row | SMILES | IC50 [nM] | Max % inhibition [%]
1 | Cc1c(CN(C)C)ncn1-c1ccc(Oc2cc(Cl)ccc2CN2C(=O)C[C@@H]([C@@H]3CCc4ccccc43)C(=O)N3CCC[C@@](Cc4ccc(Cl)cc4)(C3)NC(=O)[C@H](CO)NC(=O)[C@@H]2C)cc1 [Compound 7, (3S, 7S, 10S, 13R)-6-(4-chloro-2-(4-(4-((dimethylamino)methyl)-5-methyl-1H-imidazol-1-yl)phenoxy)benzyl)-13-(4-chlorobenzyl)-3-((S)-2,3-dihydro-1H-inden-1-yl)-10-(hydroxymethyl)-7-methyl-1,6,9,12-tetraazabicyclo[11.3.1]heptadecane-2,5,8,11-tetraone] | 0.401 | 107.3
2 | CCn1c(-c2ccc(Oc3cc(Cl)cc(F)c3CN3C(=O)C[C@@H](CC(F)(F)F)C(=O)N4CCC[C@@](Cc5ccc(Cl)cc5)(C4)NC(=O)[C@H](CO)NC(=O)[C@@H]3C)cc2)cnc1CN(C)C [Compound 88, (3S, 7S, 10S, 13R)-6-(4-chloro-2-(4-(2-((dimethylamino)methyl)-1-ethyl-1H-imidazol-5-yl)phenoxy)-6-fluorobenzyl)-13-(4-chlorobenzyl)-10-(hydroxymethyl)-7-methyl-3-(2,2,2-trifluoroethyl)-1,6,9,12-tetraazabicyclo[11.3.1]heptadecane-2,5,8,11-tetraone] | 3.16 | 99.0
3 | COC[C@@H]1NC(=O)[C@H](C)N(Cc2ccc(Cl)cc2Oc2ccc(-c3cnc(CN4CCCC4)n3C)cc2)C(=O)C[C@@H](Cc2ccccc2)C(=O)N(C)C[C@@H](Cc2ccc(Cl)cc2)N(C)C1=O.Cl [Compound 114, (2S, 5S, 8R, 12R)-12-benzyl-1-(4-chloro-2-(4-(1-methyl-2-(pyrrolidin-1-ylmethyl)-1H-imidazol-5-yl)phenoxy)benzyl)-8-(4-chlorobenzyl)-5-(methoxymethyl)-2,7,10-trimethyl-1,4,7,10-tetraazacyclotetradecane-3,6,11,14-tetraone] | 21.4 | 95.9
4 | C[C@H]1C(=O)N[C@@H](CO)C(=O)N[C@@]2(Cc3ccc(Cl)cc3)CCCN(C2)C(=O)[C@H](CC2CC2)CC(=O)N1Cc1ccc(Cl)cc1Oc1ccc(-c2cnc(CNC(C)(C)C)n2C)cc1 [Compound 148, (3R, 7S, 10S, 13R)-6-(2-(4-(2-((tert-butylamino)methyl)-1-methyl-1H-imidazol-5-yl)phenoxy)-4-chlorobenzyl)-13-(4-chlorobenzyl)-3-(cyclopropylmethyl)-10-(hydroxymethyl)-7-methyl-1,6,9,12-tetraazabicyclo[11.3.1]heptadecane-2,5,8,11-tetraone] | 1.09 | 111.9
5 | C[C@H]1C(=O)N[C@@H](CO)C(=O)N[C@@]2(Cc3ccc(Cl)cc3)CCCN(C2)C(=O)[C@H]([C@@H]2CCc3ccccc32)CC(=O)N1Cc1ccc(Cl)cc1Oc1ccc(-c2cnc(C3CN(C)C3)n2C)cc1 [Compound 69, (3S, 7S, 10S, 13R)-6-(4-chloro-2-(4-(1-methyl-2-(1-methylazetidin-3-yl)-1H-imidazol-5-yl)phenoxy)benzyl)-13-(4-chlorobenzyl)-3-((S)-2,3-dihydro-1H-inden-1-yl)-10-(hydroxymethyl)-7-methyl-1,6,9,12-tetraazabicyclo[11.3.1]heptadecane-2,5,8,11-tetraone] | 0.781 | 70.1
6 | CCC[C@@H]1CC(=O)N(Cc2c(F)cc(Cl)cc2Oc2ccc(-c3cnc(CN(C)C)n3C)cc2)[C@@H](C)C(=O)N[C@@H](CO)C(=O)N[C@@]2(Cc3ccc(Cl)cc3)CCCN(C2)C1=O [Compound 51, (3R, 7S, 10S, 13R)-6-(4-chloro-2-(4-(2-((dimethylamino)methyl)-1-methyl-1H-imidazol-5-yl)phenoxy)-6-fluorobenzyl)-13-(4-chlorobenzyl)-10-(hydroxymethyl)-7-methyl-3-propyl-1,6,9,12-tetraazabicyclo[11.3.1]heptadecane-2,5,8,11-tetraone] | 1.12 | 101.3
7 | C[C@H]1C(=O)N[C@@H](CO)C(=O)N(C)[C@H](Cc2ccc(Cl)cc2)CN(C)C(=O)[C@H]([C@H]2CCc3ccccc32)CC(=O)N1Cc1ccc(Cl)cc1Oc1ccc(-c2cnc(CN(C)C)n2C)cc1.Cl [Compound 91, (2S, 5S, 8R, 12S)-1-(4-chloro-2-(4-(2-((dimethylamino)methyl)-1-methyl-1H-imidazol-5-yl)phenoxy)benzyl)-8-(4-chlorobenzyl)-12-((R)-2,3-dihydro-1H-inden-1-yl)-5-(hydroxymethyl)-2,7,10-trimethyl-1,4,7,10-tetraazacyclotetradecane-3,6,11,14-tetraone] | 1.83 | 104.8
8 | COC[C@@H]1NC(=O)[C@H](CCCCN2CCOCC2)N(Cc2ccc(Cl)cc2Oc2ccc(-c3cnc(CN(C)C)n3C)cc2)C(=O)C[C@@H]([C@H]2CCc3ccccc32)C(=O)N(C)C[C@@H](Cc2ccc(Cl)cc2)N(C)C1=O.Cl [Compound 131, (2S, 5S, 8R, 12S)-1-(4-chloro-2-(4-(2-((dimethylamino)methyl)-1-methyl-1H-imidazol-5-yl)phenoxy)benzyl)-8-(4-chlorobenzyl)-12-((R)-2,3-dihydro-1H-inden-1-yl)-5-(methoxymethyl)-7,10-dimethyl-2-(4-morpholinobutyl)-1,4,7,10-tetraazacyclotetradecane-3,6,11,14-tetraone] | 281 | 91.9
9 | COC[C@@H]1NC(=O)[C@H](CCN2CCOCC2)N(Cc2ccc(Cl)cc2Oc2ccc(-c3cnc(CN(C)C)n3C)cc2)C(=O)C[C@@H]([C@H]2CCc3ccccc32)C(=O)N(C)C[C@@H](Cc2ccc(Cl)cc2)N(C)C1=O.Cl [Compound 125, (2S, 5S, 8R, 12S)-1-(4-chloro-2-(4-(2-((dimethylamino)methyl)-1-methyl-1H-imidazol-5-yl)phenoxy)benzyl)-8-(4-chlorobenzyl)-12-((R)-2,3-dihydro-1H-inden-1-yl)-5-(methoxymethyl)-7,10-dimethyl-2-(2-morpholinoethyl)-1,4,7,10-tetraazacyclotetradecane-3,6,11,14-tetraone] | 103 | 92.2
10 | C[C@H]1C(=O)N[C@@H](CO)C(=O)N(C)[C@@]2(Cc3ccc(Cl)cc3)CCCN(C2)C(=O)[C@H](Cc2c(F)cc(F)cc2F)CC(=O)N1Cc1ccc(Cl)cc1Oc1ccc(-c2cnc(CN(C)C)n2C)cc1 [Compound 37, (3R, 7S, 10S, 13R)-6-(4-chloro-2-(4-(2-((dimethylamino)methyl)-1-methyl-1H-imidazol-5-yl)phenoxy)benzyl)-13-(4-chlorobenzyl)-10-(hydroxymethyl)-7,12-dimethyl-3-(2,4,6-trifluorobenzyl)-1,6,9,12-tetraazabicyclo[11.3.1]heptadecane-2,5,8,11-tetraone] | 0.445 | 112.0
11 | COC[C@@H]1NC(=O)[C@H](C)N(Cc2c(F)cc(Cl)cc2Oc2ccc(-c3cnc(CN4CCCC4)n3C)cc2)C(=O)C[C@@H](Cc2cccc(C)n2)C(=O)N2CCC[C@@](Cc3ccc(Cl)cc3)(C2)N(C)C1=O [Compound 14] | 0.632 | 102.7

Other lines, results leading:

Row | IC50 [nM] | Max % inhibition [%] | SMILES
12 | 0.85 | 105.4 | CNCc1ncc(-c2ccc(Oc3cc(Cl)ccc3CN3C(=O)C[C@@H](Cc4ccccc4)C(=O)N4CCC[C@@](Cc5ccc(Cl)cc5)(C4)NC(=O)[C@H](CO)NC(=O)[C@@H]3C)cc2)n1C [Compound 150, (3R, 7S, 10S, 13R)-3-benzyl-6-(4-chloro-2-(4-(1-methyl-2-((methylamino)methyl)-1H-imidazol-5-yl)phenoxy)benzyl)-13-(4-chlorobenzyl)-10-(hydroxymethyl)-7-methyl-1,6,9, 12-tetraazabicyclo[11.3.1]heptadecane-2,5,8,11-tetraone]
13 | 1.18 | 105.2 | COC[C@@H]1NC(=O)[C@H](C)N(Cc2ccc(Cl)cc2Oc2ccc(-c3cnc(CN(C)C)n3C)cc2)C(=O)C[C@@H](Cc2cccc(=O)n2C)C(=O)N2CCC[C@@](Cc3ccc(Cl)cc3)(C2)NC1=O [Compound 44]
14 | 0.673 | 104.2 | C[C@H]1C(=O)N[C@@H](CO)C(=O)N[C@@]2(Cc3ccc(Cl)cc3)CCCN(C2)C(=O)[C@H](Cc2cccc[n+]2[O-])CC(=O)N1Cc1ccc(Cl)cc1Oc1ccc(-c2cnc(CN(C)C)n2C)cc1 [Compound 66, 2-(((3R,7S,10S,13R)-6-(4-Chloro-2-(4-(2-((dimethylamino)methyl)-1-methyl-1H-imidazol-5-yl)phenoxy)benzyl)-13-(4-chlorobenzyl)-10-(hydroxymethyl)-7-methyl-2,5,8,11-tetraoxo-1,6,9,12-tetraazabicyclo[11.3.1]heptadecan-3-yl)methyl)pyridine 1-oxide]
15 | 0.51 | 108.7 | C[C@H]1C(=O)N[C@@H](CO)C(=O)N[C@@]2(Cc3ccc(Cl)cc3)CCCN(C2)C(=O)[C@H](Cc2ccccc2)CC(=O)N1Cc1ccc(Cl)cc1Oc1ccc(-c2cnc(CN(C)C)n2C)cc1 [Compound 50, (3R,7S,10S,13R)-3-Benzyl-6-(4-chloro-2-(4-(2-((dimethylamino)methyl)-1-methyl-1H-imidazol-5-yl)phenoxy)benzyl)-13-(4-chlorobenzyl)-10-(hydroxymethyl)-7-methyl-1,6,9,12-tetraazabicyclo[11.3.1]heptadecane-2,5,8,11-tetraone]
16 | 0.558 | 106.4 | COC[C@@H]1NC(=O)[C@H](C)N(Cc2ccc(Cl)cc2Oc2ccc(-c3cnc(CN(C)C)n3C)cc2)C(=O)C[C@@H](Cc2cccc(C)n2)C(=O)N2CCC[C@@](Cc3ccc(Cl)cc3)(C2)NC1=O [Compound 4, (3R,7S,10S,13R)-6-(4-Chloro-2-(4-(2-((dimethylamino)methyl)-1-methyl-1H-imidazol-5-yl)phenoxy)benzyl)-13-(4-chlorobenzyl)-10-(methoxymethyl)-7-methyl-3-((6-methylpyridin-2-yl)methyl)-1,6,9,12-tetraazabicyclo[11.3.1]heptadecane-2,5,8,11-tetraone]
